According to patent publication US8722849B2, “Polypeptides” (Novo Nordisk A/S, priority 2011, dated 2014):
In brackets after ≈: the same amount, converted by molar mass. Where two headings read alike, the source gives them in different places. Starred links: 1 amine or outer side, 2 acyl side, 3 side chain; linkers in the order of their positions; H or OH if unused. Positions of bridges follow the written chain, without caps; N, C: chain ends. Residues, ends and D or L forms follow the SMILES beside them. *: point of attachment. C20 diacid = O=C(O)CCCCCCCCCCCCCCCCCCC(=O)*; γGlu = O=C(O)[C@H](CCC(=O)[*:2])N[*:1]

Tests used:
[1] = Assay (III) ThT fibrillation assay for physical stability; type: physicochemical
Method in brief: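 Freshly prepared formulations, pH-adjusted, with 1 μM ThT; four or eight replicates incubated at 37 °C under 960 rpm orbital shaking. Fluorescence (ex 444/em 485 nm) read every 20 min; […]. Peptide concentration measured by RP-HPLC before and after the run.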

[2] = target: T1, human amylin receptor (amylin 3(a) receptor: human calcitonin receptor + RAMP-3) (Homo sapiens, UniProt O60896+P30988); assay: Assay (II)a functional CRE-luciferase assay, human amylin receptor; type: cell-based
T1 construct: expressed in transfected cells; host or cells: BHK570
T1 sequence (P30988 25-474): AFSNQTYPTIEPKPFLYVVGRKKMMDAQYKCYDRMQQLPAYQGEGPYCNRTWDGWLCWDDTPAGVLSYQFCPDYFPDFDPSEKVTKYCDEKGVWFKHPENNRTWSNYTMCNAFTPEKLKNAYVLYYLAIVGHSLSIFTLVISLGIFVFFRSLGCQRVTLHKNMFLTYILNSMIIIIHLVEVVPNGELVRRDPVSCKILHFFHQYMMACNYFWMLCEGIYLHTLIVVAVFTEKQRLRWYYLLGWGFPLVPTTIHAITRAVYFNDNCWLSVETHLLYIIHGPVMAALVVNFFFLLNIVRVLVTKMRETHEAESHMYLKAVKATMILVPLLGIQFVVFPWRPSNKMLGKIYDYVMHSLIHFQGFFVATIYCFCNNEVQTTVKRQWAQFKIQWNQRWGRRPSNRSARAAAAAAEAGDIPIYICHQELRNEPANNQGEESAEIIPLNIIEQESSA
T1 sequence (O60896 24-148 partner): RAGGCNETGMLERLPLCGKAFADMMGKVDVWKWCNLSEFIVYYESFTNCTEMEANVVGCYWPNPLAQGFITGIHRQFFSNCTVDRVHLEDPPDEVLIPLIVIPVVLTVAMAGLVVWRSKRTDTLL

[3] = Assay (IV) determination of solubility; type: physicochemical
Method in brief: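 Polypeptide in water (~500 nmol/ml) mixed 1:1 with 100 mM glycylglycine (pH 3.0–5.0) or bistrispropane (pH 6.0–8.0) buffers. Held 18 hours at room temperature, then centrifuged. Polypeptide remaining in solution quantified by HPLC.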

[4] = target: T2, human calcitonin receptor (Homo sapiens, UniProt P30988); assay: Assay (II)a functional CRE-luciferase assay, human calcitonin receptor; type: cell-based; settings: Table 7; human calcitonin (CTa) receptor
T2 construct: expressed in transfected cells; host or cells: BHK570
T2 sequence (P30988 25-474): T1 sequence (P30988 25-474)

[5] = bistrispropane buffer, pH 6, pH 6.0, read-out: Solubility pH 6.0
[6] = bistrispropane buffer, pH 6.5, pH 6.5, read-out: Solubility pH 6.5
[7] = bistrispropane buffer, pH 7, pH 7.0, read-out: Solubility pH 7.0
[8] = bistrispropane buffer, pH 7.5, pH 7.5, read-out: Solubility pH 7.5
[9] = bistrispropane buffer, pH 8, pH 8.0, read-out: Solubility pH 8.0
[10] = glycylglycine buffer, pH 3, pH 3.0, read-out: Solubility pH 3.0
[11] = glycylglycine buffer, pH 4, pH 4.0, read-out: Solubility pH 4.0
[12] = glycylglycine buffer, pH 5, pH 5.0, read-out: Solubility pH 5.0
[13] = Table 2, BHK amylin 3(a)-receptor/CRE-luc cells
[14] = bistrispropane buffer, pH 7, pH 7.0, 18 hours at room temperature, Table 3, read-out: Solubility pH 7.0
[15] = glycylglycine buffer, pH 4, pH 4.0, 18 hours at room temperature, Table 2, read-out: Solubility pH 4.0

Compound | ThT pH 4.0 lag time (h) ([1]; ThT fibrillation assay) | EC50 ([2]; Table 6, human amylin receptor) | solubility at 18 h [3, 5] | solubility at 18 h [3, 6] | solubility at 18 h [3, 7] | solubility at 18 h [3, 8] | solubility at 18 h [3, 9] | solubility at 18 h [3, 10] | solubility at 18 h [3, 11] | solubility at 18 h [3, 12] | EC50 [4] | EC50 [2, 13] | solubility at 18 h [3, 14] | solubility at 18 h [3, 15] | ThT pH 4.0 lag time ([1]; Table 8) | ThT pH 4.0 lag time ([1]; ThT fibrillation assay) | solubility at 18 h ([3]; bistrispropane buffer, pH 7, pH 7.0, Table 8, read-out: Solubility pH 7.0)
CC[C@H](C)[C@H](NC(=O)[C@@H]1CCCN1C(=O)CNC(=O)[C@H](Cc1ccccc1)NC(=O)[C@H](CC(N)=O)NC(=O)[C@H](CC(N)=O)NC(=O)[C@H](CO)NC(=O)[C@H](CO)NC(=O)[C@H](Cc1c[nH]cn1)NC(=O)[C@@H](NC(=O)[C@H](CC(C)C)NC(=O)[C@H](Cc1ccccc1)NC(=O)[C@H](CC(N)=O)NC(=O)[C@H](C)NC(=O)[C@H](CC(C)C)NC(=O)[C@H](CCCNC(=N)N)NC(=O)[C@H](CCC(N)=O)NC(=O)[C@@H](NC(=O)[C@H](C)NC(=O)[C@@H]1CSSC[C@H](NC(=O)[C@H](CCCNC(=N)N)NC(=O)CNC(=O)CC[C@H](NC(=O)CCCCCCCCCCCCCCCCCCC(=O)O)C(=O)O)C(=O)N[C@@H](CC(N)=O)C(=O)N[C@@H]([C@@H](C)O)C(=O)N[C@@H](C)C(=O)N[C@@H]([C@@H](C)O)C(=O)N1)[C@@H](C)O)C(C)C)C(=O)N[C@@H](CC(C)C)C(=O)N1CCC[C@H]1C(=O)N1CCC[C@H]1C(=O)N[C@H](C(=O)N[C@@H](CC(N)=O)C(=O)N[C@H](C(=O)NCC(=O)N[C@@H](CO)C(=O)N[C@@H](CC(N)=O)C(=O)N[C@H](C(=O)N1CCC[C@H]1C(N)=O)[C@@H](C)O)C(C)C)[C@@H](C)O [Example 103, N-alpha-[(S)-4-Carboxy-4-(19-carboxynonadecanoylamino)butyryl]-Gly-[Arg1,Pro37]-pramlintide] ({C20 diacid-γGlu}-GRCNTATCATQRLANFLVHSSNNFGPILPPTNVGSNTP-NH2; disulfide 3-8 (inferred)) | 1.3 h | 0.0525 nM | > 200 µM | > 200 µM | 199 µM (≈ 880 µg/mL) | > 200 µM | > 200 µM | > 200 µM | > 200 µM | > 200 µM | 0.075 nM | – | – | – | – | – | –
CC[C@H](C)[C@H](NC(=O)[C@@H]1CCCN1C(=O)CNC(=O)[C@H](Cc1ccccc1)NC(=O)[C@H](CC(N)=O)NC(=O)[C@H](CC(N)=O)NC(=O)[C@H](CO)NC(=O)[C@H](CO)NC(=O)[C@H](Cc1c[nH]cn1)NC(=O)[C@H](Cc1c[nH]cn1)NC(=O)[C@H](CC(C)C)NC(=O)[C@H](Cc1ccccc1)NC(=O)[C@H](CCC(=O)O)NC(=O)[C@H](C)NC(=O)[C@H](CC(C)C)NC(=O)[C@H](CCCNC(=N)N)NC(=O)[C@H](CCC(N)=O)NC(=O)[C@@H](NC(=O)[C@H](C)NC(=O)[C@@H]1CSSC[C@H](NC(=O)CC[C@H](NC(=O)CCCCCCCCCCCCCCCCCCC(=O)O)C(=O)O)C(=O)N[C@@H](CC(N)=O)C(=O)N[C@@H]([C@@H](C)O)C(=O)N[C@@H](C)C(=O)N[C@@H]([C@@H](C)O)C(=O)N1)[C@@H](C)O)C(=O)N[C@@H](CC(C)C)C(=O)N1CCC[C@H]1C(=O)N1CCC[C@H]1C(=O)N[C@H](C(=O)N[C@@H](CC(N)=O)C(=O)N[C@H](C(=O)NCC(=O)N[C@@H](CO)C(=O)N[C@@H](CC(N)=O)C(=O)N[C@H](C(=O)N1CCC[C@H]1C(N)=O)[C@@H](C)O)C(C)C)[C@@H](C)O [Example 104, N-alpha-[(S)-4-Carboxy-4-(19-carboxynonadecanoylamino)butyryl]-[des1,Glu14,His17,Pro37]-pramlintide] ({C20 diacid-γGlu}-CNTATCATQRLAEFLHHSSNNFGPILPPTNVGSNTP-NH2; disulfide 1-6 (inferred)) | 23 h | – | > 200 µM | > 200 µM | > 200 µM | > 200 µM | > 200 µM | > 200 µM | > 200 µM | > 200 µM | 0.107 nM | 0.0795 nM | > 200 µM | > 200 µM | – | – | –
CC[C@H](C)[C@H](NC(=O)[C@@H]1CCCN1C(=O)CNC(=O)[C@H](Cc1ccccc1)NC(=O)[C@H](CC(N)=O)NC(=O)[C@H](CC(N)=O)NC(=O)[C@H](CO)NC(=O)[C@H](CO)NC(=O)[C@H](Cc1c[nH]cn1)NC(=O)[C@H](Cc1c[nH]cn1)NC(=O)[C@H](CC(C)C)NC(=O)[C@H](Cc1ccccc1)NC(=O)[C@H](CCC(=O)O)NC(=O)[C@H](C)NC(=O)[C@H](CC(C)C)NC(=O)[C@H](CCCNC(=N)N)NC(=O)[C@H](CCC(N)=O)NC(=O)[C@@H](NC(=O)[C@H](C)NC(=O)[C@@H]1CSSC[C@H](NC(=O)CNC(=O)CC[C@H](NC(=O)CCCCCCCCCCCCCCCCCCC(=O)O)C(=O)O)C(=O)N[C@@H](CC(N)=O)C(=O)N[C@@H]([C@@H](C)O)C(=O)N[C@@H](C)C(=O)N[C@@H]([C@@H](C)O)C(=O)N1)[C@@H](C)O)C(=O)N[C@@H](CC(C)C)C(=O)N1CCC[C@H]1C(=O)N1CCC[C@H]1C(=O)N[C@H](C(=O)N[C@@H](CC(N)=O)C(=O)N[C@H](C(=O)NCC(=O)N[C@@H](CO)C(=O)N[C@@H](Cc1c[nH]cn1)C(=O)N[C@H](C(=O)N[C@@H](Cc1ccc(O)cc1)C(N)=O)[C@@H](C)O)C(C)C)[C@@H](C)O [Example 105, N-alpha-[(S)-4-Carboxy-4-(19-carboxynonadecanoylamino)butyryl]-[Gly1,Glu14,His17,His35]-pramlintide] ({C20 diacid-γGlu}-GCNTATCATQRLAEFLHHSSNNFGPILPPTNVGSHTY-NH2; disulfide 2-7 (inferred); C-terminus assumed) | 26 h | – | > 200 µM | 152 µM (≈ 670 µg/mL) | > 200 µM | > 200 µM | > 200 µM | > 200 µM | > 200 µM | > 200 µM | 0.16 nM | 0.208 nM | > 200 µM | > 200 µM | 26 h | 26 h | > 200 µM
CC[C@H](C)[C@H](NC(=O)[C@@H]1CCCN1C(=O)CNC(=O)[C@H](Cc1ccccc1)NC(=O)[C@H](CC(N)=O)NC(=O)[C@H](CC(N)=O)NC(=O)[C@H](CO)NC(=O)[C@H](CO)NC(=O)[C@H](Cc1c[nH]cn1)NC(=O)[C@H](Cc1c[nH]cn1)NC(=O)[C@H](CC(C)C)NC(=O)[C@H](Cc1ccccc1)NC(=O)[C@H](CCC(=O)O)NC(=O)[C@H](C)NC(=O)[C@H](CC(C)C)NC(=O)[C@H](CCCNC(=N)N)NC(=O)[C@H](CCC(N)=O)NC(=O)[C@@H](NC(=O)[C@H](C)NC(=O)[C@@H]1CSSC[C@H](NC(=O)[C@H](CO)NC(=O)CC[C@H](NC(=O)CCCCCCCCCCCCCCCCCCC(=O)O)C(=O)O)C(=O)N[C@@H](CC(N)=O)C(=O)N[C@@H]([C@@H](C)O)C(=O)N[C@@H](C)C(=O)N[C@@H]([C@@H](C)O)C(=O)N1)[C@@H](C)O)C(=O)N[C@@H](CC(C)C)C(=O)N1CCC[C@H]1C(=O)N1CCC[C@H]1C(=O)N[C@H](C(=O)N[C@@H](CC(N)=O)C(=O)N[C@H](C(=O)NCC(=O)N[C@@H](CO)C(=O)N[C@@H](CC(N)=O)C(=O)N[C@H](C(=O)N1CCC[C@H]1C(N)=O)[C@@H](C)O)C(C)C)[C@@H](C)O [Example 106, N-alpha-[(S)-4-Carboxy-4-(19-carboxynonadecanoylamino)butyryl]-[Ser1,Glu14,His17,Pro37]-pramlintide] ({C20 diacid-γGlu}-SCNTATCATQRLAEFLHHSSNNFGPILPPTNVGSNTP-NH2; disulfide 2-7 (inferred); C-terminus assumed) | 9.7 h | – | > 200 µM | > 200 µM | > 200 µM | > 200 µM | > 200 µM | > 200 µM | > 200 µM | > 200 µM | 0.0705 nM | 0.0625 nM | > 200 µM | > 200 µM | – | – | –
